Laboratory results: ChEMBL document CHEMBL6083280, “De Novo Discovery of a Noncovalent Cell-Penetrating Bicyclic Peptide Inhibitor Targeting SARS-CoV-2 Main Protease” (J Med Chem, 2024)
Activity calls are given as the source filed them. The rule behind the calls is not given here. Positions of bridges follow the written chain, without caps; N, C: chain ends. Residues, ends and D or L forms follow the SMILES beside them.

Legend:
[1] = test system: SARS-CoV-2; assay: Antiviral activity against SARS-CoV-2; format: functional, organism-based; settings: Severe acute respiratory syndrome coronavirus 2
[2] = test system: SARS-CoV-2; assay: Antiviral activity against SARS-CoV-2 infected in human Caco-2 cells assessed as inhibition of viral infection preincubated for 1 hr followed by viral infection measured after 48 hrs by CQ1 confocal quantitative image cytometer analysis; format: functional, organism-based; settings: for Activity: Severe acute respiratory syndrome coronavirus 2, time 49.0 hrs; for EC50: Severe acute respiratory syndrome coronavirus 2, Caco-2
[3] = target: T1, Replicase polyprotein 1ab (Severe acute respiratory syndrome coronavirus 2, UniProt P0DTD1); assay: Binding affinity to N-terminal his-tagged SARS-CoV-2 Main protease expressed in Escherichia coli BL21 (DE3) assessed as dissociation constant by ITC analysis
[4] = target: T1, Replicase polyprotein 1ab; assay: Inhibition of N-terminal his-tagged SARS-CoV-2 Main protease expressed in Escherichia coli BL21 (DE3) using Dabcyl-TSAVLWSGFRICMK-Edans as substrate preincubated for 10 mins by microplate reader analysis
[5] = Drug uptake in human HeLa cells at 5 uM measured after 3 hrs by live confocal microscopic analysis; format: ADME, cell-based
[6] = Half life in male CD-1 mouse at 4 mg/kg, iv by LC-MS/MS analysis; format: ADME, organism-based; settings: in vivo
[7] = test system: Caco-2; assay: (§1) Cytotoxicity against human Caco-2 cells assessed as cell viability at 100 uM incubated for 48 hrs by CCK-8 assay; format: toxicity, cell-based; settings: caco-2, 48 h, 100 µM
[8] = Initial plasma concentration in male CD-1 mouse at 4 mg/kg, iv by LC-MS/MS analysis; format: ADME, organism-based
[9] = AUC (0 to infinity) in male CD-1 mouse at 4 mg/kg, iv by LC-MS/MS analysis; format: ADME, organism-based; settings: in vivo
[10] = Clearance in male CD-1 mouse at 4 mg/kg, iv by LC-MS/MS analysis; format: ADME, organism-based; settings: in vivo
[11] = Drug uptake in human Caco-2 cells at 5 uM measured after 3 hrs by live confocal microscopic analysis; format: ADME, cell-based; settings: caco-2, 3 h
[12] = Volume of distribution at steady state in male CD-1 mouse at 4 mg/kg, iv by LC-MS/MS analysis; format: ADME, organism-based; settings: in vivo, read-out: Vdss
[13] = Metabolic stability in mouse serum assessed as half life by HPLC analysis; format: ADME, cell-free
[14] = as §1; format: toxicity, cell-based; settings: Caco-2 cells
[15] = target: Cathepsin B (Homo sapiens) (UniProt P07858); assay: Inhibition of cathepsin B (unknown origin)
[16] = target: Ubiquitin carboxyl-terminal hydrolase 14 (Homo sapiens) (UniProt P54578); assay: Inhibition of USP14 (unknown origin)
Sequence of Ubiquitin carboxyl-terminal hydrolase 14 (Homo sapiens) (P54578 whole entry): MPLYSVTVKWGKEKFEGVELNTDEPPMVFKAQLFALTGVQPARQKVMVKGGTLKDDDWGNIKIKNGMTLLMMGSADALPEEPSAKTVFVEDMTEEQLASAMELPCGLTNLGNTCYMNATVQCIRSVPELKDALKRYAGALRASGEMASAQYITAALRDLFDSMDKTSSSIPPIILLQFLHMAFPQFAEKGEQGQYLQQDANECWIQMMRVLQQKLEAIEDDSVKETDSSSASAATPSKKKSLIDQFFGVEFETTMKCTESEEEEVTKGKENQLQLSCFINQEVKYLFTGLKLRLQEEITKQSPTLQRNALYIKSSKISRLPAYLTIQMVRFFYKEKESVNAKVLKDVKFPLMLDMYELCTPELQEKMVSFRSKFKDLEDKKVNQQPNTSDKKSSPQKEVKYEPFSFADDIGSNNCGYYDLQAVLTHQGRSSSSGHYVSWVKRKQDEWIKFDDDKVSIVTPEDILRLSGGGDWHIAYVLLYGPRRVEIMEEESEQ

[17] = test system: SARS-CoV-2; assay: Antiviral activity against SARS-CoV-2 Omicron; format: functional, organism-based; settings: Severe acute respiratory syndrome coronavirus 2, Omicron

CC(C)c1nc(CN(C)C(=O)N[C@H](C(=O)N[C@@H](Cc2ccccc2)C[C@H](O)[C@H](Cc2ccccc2)NC(=O)OCc2cncs2)C(C)C)cs1 [RITONAVIR]
EC50 [1]: 7.54 µM

CC(C)C[C@@H]1NC(=O)[C@H](CC(N)=O)NC(=O)[C@H](Cc2ccc(O)cc2)NC(=O)CSC[C@@H](C(=O)NCC(N)=O)NC(=O)[C@H](Cc2ccccc2)NC(=O)[C@H](CO)NC(=O)[C@H](CO)NC(=O)[C@H](CO)NC(=O)[C@H](Cc2c[nH]c3ccccc23)NC(=O)[C@H](CC(=O)O)NC(=O)[C@H](C)NC(=O)[C@H](CCCNC(=N)N)NC(=O)[C@H](CCC(N)=O)NC(=O)[C@H](Cc2ccccc2)NC1=O ({CH2CO}-YNLFQRADWSSSFCG-NH2; thioether N-14)
Activity [2]: inactive
Kd [3]: 6.73 µM
IC50 [4]: 0.3 µM

CC(C)(C)[C@H](NC(=O)C(F)(F)F)C(=O)N1C[C@H]2[C@@H]([C@H]1C(=O)N[C@H](C#N)C[C@@H]1CCNC1=O)C2(C)C
EC50 [1]: 0.0326 µM

CC(C)C[C@H](NC(=O)OCc1ccccc1)C(=O)N[C@@H](CC1CCNC1=O)C(O)S(=O)(=O)O (stereo not given in full)
EC50 [1]: 4.5 µM

CC[C@H](C)[C@@H]1NC(=O)[C@H](Cc2ccc(O)cc2)NC(=O)[C@H](CO)NC(=O)[C@H](CC(C)C)NC(=O)CNC(=O)[C@H](Cc2ccc(O)cc2)NC(=O)[C@H](CO)NC(=O)[C@H](CCC(N)=O)NC(=O)[C@H](Cc2ccccc2)NC(=O)[C@@H](Cc2ccc(O)cc2)NC(=O)CSC[C@@H](C(=O)NCC(N)=O)NC(=O)CNC(=O)[C@@H]2CCCN2C1=O
Activity [2]: inactive
Kd [3]: 2.78 µM
IC50 [4]: 0.46 µM

CC[C@H](C)[C@@H]1NC(=O)[C@@H](Cc2ccc(O)cc2)NC(=O)CSC[C@@H](C(=O)NCC(N)=O)NC(=O)[C@@H]2CCCN2C(=O)[C@H](CC(C)C)NC(=O)[C@H](CC(C)C)NC(=O)[C@H]([C@@H](C)O)NC(=O)[C@H](CC(N)=O)NC(=O)CNC(=O)[C@H](CO)NC(=O)[C@H](C)NC(=O)[C@H](Cc2ccccc2)NC(=O)[C@H](CCCNC(=N)N)NC1=O
Activity [2]: inactive
Kd [3]: 4.8 µM
IC50 [4]: 0.25 µM

CC(C)C[C@@H]1NC(=O)[C@H](Cc2ccccc2)NC(=O)[C@@H](Cc2ccc(O)cc2)NC(=O)CSC[C@@H](C(=O)NCC(N)=O)NC(=O)CNC(=O)[C@H](Cc2ccccc2)NC(=O)[C@H]([C@@H](C)O)NC(=O)[C@H](Cc2ccc(O)cc2)NC(=O)[C@H](CCCNC(=N)N)NC(=O)[C@H](Cc2ccc(O)cc2)NC(=O)[C@@H]2CCCN2C(=O)[C@@H]2CCCN2C1=O
Activity [2]: inactive
Kd [3]: 4 µM
IC50 [4]: 1.45 µM

CC(C)[C@@H]1NC(=O)[C@@H](Cc2ccc(O)cc2)NC(=O)CC[C@@H](C(N)=O)NC(=O)[C@@H]2CCCN2C(=O)[C@@H]2CCCN2C(=O)C2CSc3c(F)c(F)c(c(F)c3F)-c3c(F)c(F)c(c(F)c3F)SC[C@H](NC1=O)C(=O)N[C@@H](Cc1ccccc1)C(=O)N[C@@H](Cc1c[nH]cn1)C(=O)N[C@@H]([C@@H](C)O)C(=O)N[C@@H]([C@@H](C)O)C(=O)N[C@@H]([C@@H](C)O)C(=O)N1CCC[C@H]1C(=O)N[C@@H](Cc1ccccc1)C(=O)N2
Drug uptake [5]: Active
half-life [6]: 0.499 h
Activity [7]: Non-toxic
C0 [8]: 12100 ng/mL
AUC(0-inf) [9]: 2530 ng·h/mL
EC50 [2]: 8.62 µM
clearance [10]: 26.5 mL/min/kg
Drug uptake [11]: Active
Vd [12]: 0.511 L/kg
half-life [13]: 8 h
IC50 [4]: 4.51 µM

CC(C)C[C@@H]1NC(=O)[C@H](CC(N)=O)NC(=O)[C@H](Cc2ccc(O)cc2)NC(=O)CSC[C@@H](C(=O)NCC(N)=O)NC(=O)[C@H](Cc2ccc(O)cc2)NC(=O)[C@H](CCC(N)=O)NC(=O)[C@H]([C@@H](C)O)NC(=O)[C@H]([C@@H](C)O)NC(=O)[C@H](Cc2c[nH]c3ccccc23)NC(=O)[C@H](CC(=O)O)NC(=O)[C@H]([C@@H](C)O)NC(=O)[C@H](CCCNC(=N)N)NC(=O)[C@H](CCC(N)=O)NC(=O)[C@H](Cc2ccccc2)NC1=O ({CH2CO}-YNLFQRTDWTTQYCG-NH2; thioether N-14)
CC50 at 48 h [14]: > 100 µM
EC50 [2]: 4.89 µM
Activity [2]: inactive
Kd [3]: 1.12 µM
half-life [13]: 1.6 h
IC50 [4]: 0.5 µM

CC(C)C[C@@H]1NC(=O)[C@H](Cc2ccccc2)NC(=O)[C@@H]2CCCN2C(=O)[C@H]([C@@H](C)O)NC(=O)[C@H]([C@@H](C)O)NC(=O)[C@H]([C@@H](C)O)NC(=O)[C@H](Cc2c[nH]cn2)NC(=O)[C@H](Cc2ccccc2)NC(=O)[C@H]([C@@H](C)O)NC(=O)[C@H](C(C)C)NC(=O)[C@@H](Cc2ccc(O)cc2)NC(=O)CSC[C@@H](C(=O)NCC(N)=O)NC(=O)[C@@H]2CCCN2C(=O)[C@@H]2CCCN2C1=O
CC50 at 48 h [14]: > 100 µM
EC50 [2]: 10.8 µM
Activity [2]: inactive
Kd [3]: 2.75 µM
half-life [13]: 5.4 h
IC50 [4]: 0.3 µM
inhibition [15]: Active
inhibition [16]: Active

Cn1cnc(Cn2c(=O)[nH]/c(=N\c3cc4cn(C)nc4cc3Cl)n(Cc3cc(F)c(F)cc3F)c2=O)n1
EC50 [17]: 0.22 µM

CC(C)C[C@@H]1NC(=O)[C@H](Cc2ccc(F)c(F)c2)NC(=O)[C@@H]2CCCN2C(=O)[C@H]([C@@H](C)O)NC(=O)[C@H]([C@@H](C)O)NC(=O)[C@H]([C@@H](C)O)NC(=O)[C@H](Cc2c[nH]cn2)NC(=O)[C@H](Cc2cccc(F)c2)NC(=O)[C@H]([C@@H](C)O)NC(=O)[C@H](C(C)C)NC(=O)[C@@H](Cc2ccc(O)cc2)NC(=O)CSC[C@@H](C(=O)NCC(N)=O)NC(=O)[C@@H]2CCCN2C(=O)[C@@H]2CCCN2C1=O
EC50 [2]: > 100 µM
IC50 [4]: 0.32 µM
inhibition [15]: Active
inhibition [16]: Active

CC(C)C[C@@H]1NC(=O)[C@H](CC(N)=O)NC(=O)[C@H](Cc2ccc(O)cc2)NC(=O)CSC[C@@H](C(=O)NCC(N)=O)NC(=O)[C@H](Cc2ccccc2)NC(=O)[C@H](CCCNC(=N)N)NC(=O)[C@H](CCC(N)=O)NC(=O)[C@H](CC(N)=O)NC(=O)[C@H](Cc2c[nH]c3ccccc23)NC(=O)[C@H](CC(=O)O)NC(=O)[C@H]([C@@H](C)O)NC(=O)[C@H](CCCNC(=N)N)NC(=O)[C@H](CCC(N)=O)NC(=O)[C@H](Cc2ccccc2)NC1=O ({CH2CO}-YNLFQRTDWNQRFCG-NH2; thioether N-14)
Activity [2]: inactive
Kd [3]: 2.54 µM
IC50 [4]: 0.25 µM

Cc1cccc(C)c1OCC(=O)N[C@@H](Cc1ccccc1)[C@@H](O)C[C@H](Cc1ccccc1)NC(=O)[C@H](C(C)C)N1CCCNC1=O [LOPINAVIR]
Activity [7]: Toxic
EC50 [1]: 8.75 µM
